# In PMC4293787 (The Scientific World Journal, 2014):
# Read-outs that look alike come from different tables or passages of the source.
# What was measured:
# hepatitis B virus (HBV) = assay: Antiviral test against HBV in HepG 2.2.2.15 cells; format: cell-based, strain ayw1; parameters: SI50: unit not given beside the values; settings: for SI50: HBV, HepG 2.2.2.15 cells
# in vitro [1] = settings: dog, MDCK cells
# in vitro [2] = settings: dog, MDCK cells; remark: listed apart in the source
# influenza A H1N1 virus [3] = assay: Antiviral test against influenza A H1N1 in MDCK cells, neutral red (cytopathic effect); format: cell-based, strain California 07/2009; parameters: SI50: unit not given beside the values; settings: for EC50: Influenza A virus, H1N1, MDCK
# influenza A H1N1 virus [4] = assay: Antiviral test against influenza A H1N1 in MDCK cells, visual (cytopathic effect); format: cell-based, strain California 07/2009; parameters: SI50: unit not given beside the values; settings: for EC50: Influenza A virus, H1N1, MDCK
# in vitro [5] = settings: human
# in vitro [6] = settings: human; remark: listed apart in the source
# [7] = Toxicity (CC50) in the HSV-2 test, HFF cells (crystal violet); settings: human
# [8] = tested on: herpes simplex virus 2 (HSV-2); assay: Antiviral test against HSV-2 in HFF cells (crystal violet); format: cell-based, strain MS; parameters: SI50: unit not given beside the values
# [9] = Toxicity (CC50) in the HSV-1 test, HFF cells (crystal violet); settings: human
# [10] = tested on: herpes simplex virus 1 (HSV-1); assay: microbe, parasite or virus in culture; format: cell-based, strain E-377; parameters: SI50: unit not given beside the values; settings: for EC50: Human alphaherpesvirus 1, HFF
# vaccinia virus (VV) = assay: microbe, parasite or virus in culture; format: cell-based, strain Copenhagen; settings: Orthopoxvirus vaccinia, HFF
# [11] = Hepatitis B virus, HepG2 2.2.15
SMILES,CC50 (in vitro [1]) [µg/mL],CC50 (in vitro [2]) [µg/mL],EC50 (influenza A H1N1 virus [3]) [µg/mL],EC50 (influenza A H1N1 virus [4]) [µg/mL],melting point,CC50 (in vitro [6]) [µM],SI50 (hepatitis B virus (HBV)),EC50 (hepatitis B virus (HBV); [11]) [µM],also measured
"Nc1ccn([C@@H]2CS[C@H](CO)O2)c(=O)n1 [Compound 3TC, 3TC, reference compound]",,,,,,,,,"EC50 (hepatitis B virus (HBV); HBV strain ayw1, drug concentration range 0.063–20 μM, 3TC control range 0.00032–0.1 μM, read-out: EC50): 0.01 µM"
"O=C(NC1C=CC(O)C1)c1ccccn1 (stereo not drawn) [Compound 13a, N-(4-Hydroxycyclopent-2-enyl)picolinamide]",> 100,> 100,> 100,> 100,,,,,
"O=C(NC1C=CC(O)C1)c1cccnc1 (stereo not drawn) [Compound 13b, N-(4-Hydroxycyclopent-2-enyl)nicotinamide]",> 100,> 100,> 100,> 100,125 to 127 °C,,,,CC50 (in vitro [5]): > 300 µM
"O=C(NC1C=CC(O)C1)c1ccncc1 (stereo not drawn) [Compound 13c, N-(4-Hydroxycyclopent-2-enyl)isonicotinamide]",> 100,> 100,> 100,> 100,170 to 175 °C,,,,CC50 (in vitro [5]): > 300 µM
"O=C(NC1C=CC(O)C1)c1ccc2ccccc2n1 (stereo not drawn) [Compound 13d, N-(4-Hydroxycyclopent-2-enyl)quinoline-2-carboxamide]",> 100,> 100,> 100,> 100,89 to 90 °C,,,,
"O=C(NC1C=CC(O)CC1)c1ccccn1 (stereo not drawn) [Compound 14a, N-(4-Hydroxycyclohex-2-enyl)picolinamide]",> 100,> 100,> 100,> 100,,> 20,1,> 20,
"O=C(NC1C=CC(O)CC1)c1cccnc1 (stereo not drawn) [Compound 14b, N-(4-Hydroxycyclohex-2-enyl)nicotinamide]",> 100,> 100,> 100,> 100,95 to 99 °C,> 20,1,> 20,
"O=C(NC1C=CC(O)CC1)c1ccncc1 (stereo not drawn) [Compound 14c, N-(4-Hydroxycyclohex-2-enyl)isonicotinamide]",> 100,> 100,> 100,> 100,245 to 250 °C (dec.),> 100,1,9.64,
"O=C(NC1C=CC(O)CC1)c1ccc2ccccc2n1 (stereo not drawn) [Compound 14d, N-(4-Hydroxycyclohex-2-enyl)quinoline-2-carboxamide]",,,54,37,80 to 84 °C,> 20,1,> 20,"SI50 (influenza A H1N1 virus [3]; influenza A H1N1, MDCK cells, neutral red): 1.4; SI50 (influenza A H1N1 virus [4]; influenza A H1N1, MDCK cells, visual): >2.7"
"NC(=O)c1ncn([C@@H]2O[C@H](CO)[C@@H](O)[C@H]2O)n1 [Ribavirin, reference compound]",,,3.1,3.2,,,,,SI50 (influenza A H1N1 virus [3]): 14; SI50 (influenza A H1N1 virus [4]): >31
Nc1nc2c(ncn2COCCO)c(=O)[nH]1 [acyclovir],,,,,,,,,"CC50 [7]: > 100 µM; SI50 [8]: > 27; EC50 ([8]; Human alphaherpesvirus 2, HFF): 3.7 µM; CC50 [9]: > 100 µM; SI50 [10]: > 30; EC50 [10]: 3.29 µM"
Nc1ccn(C[C@@H](CO)OCP(=O)(O)O)c(=O)n1 [cidofovir],,,,,,,> 1,180,"EC50 (vaccinia virus (VV)): 6.07 µM; CC50 [9]: > 200 µM; SI50 ([10]; HSV-1, HFF cells): > 1; EC50 [10]: 180 µM"
